Measurements reported in patent publication US4432973A, “Benzoyl- and α-hydroxybenzyl-phenyl-glycosides and application thereof in therapeutics” (Societe de Recherches Industrielles (S.O.R.I.), priority 1980, dated 1984).

Legend:
[1] = Veinous thrombosis: veinous anti-thrombus activity; assay type: in vivo; conditions: 100 mg/kg I.P., 4 to 5 hours after administration; for inhibition in vivo at 100 mg/kg: Rattus norvegicus, ip, read-out: Diminution of veinous thrombus
Experimental: The technique used is similar to the one described by Peterson-Zucker in Thrombo.Diath.Haemorh. 23, 1, (1970).
An occlusive thrombus is created in the […] vena cava of a rat by the combined action of an endothelial alteration and a veinous stasis for 15 mins. and 4 to 5 hours after administration of the product to be tested (100 mg/kg I.P.).

[2] = Anti-ulcer activity: ulcer caused by aspirin; assay type: in vivo, rat (male Wistar); conditions: 100 mg/kg I.P.; aspirin 192 mg/kg per os; standardised to control batch and cimetidine (index 1)
Experimental: The experiment is carried out on male Wistar rats of 180 to 200 g. The products to be tested are administered at 100 mg/kg I.P. (unless indicated to the contrary in Table IV).
At t=0, the rats are made to fast and a first administration of the product to be tested is made.
At t=18 hours, 2 ml of an ulcer-forming suspension with 192 mg of aspirin/kg are administered per os then a second administration of the product to be tested is made.
At t=22 hours, the animals are sacrificed and the ulcers are marked as follows: small point-like ulcers: mark 1 more extensive ulcers: mark 3 highly extensive or very deep ulcers: mark 9
This marking is standardised with respect to a control batch and to cimetidine (a reference product) to which index 1 has been allocated.

[3] = Acute toxicity in the mouse by the I.P. route; assay type: in vivo; conditions: for LD50: read-out: DL-50 (lethal dose involving the death of half of the animals)
Description: The acute toxicity was studied in the mouse by the I.P. route. It is expressed in the form of DL-50 (lethal dose involving the death of half of the animals) or DL-0 (maximum non-lethal dose).

[4] = Anti-hypoxic activity: survival to hypoxia (nitrogen-oxygen 95:5); assay type: in vivo, mouse (Swiss male); conditions: I.P., 1/10th of LD-50 or 100 mg/kg when LD-0 ≥ 800 mg/kg; up to 15 minutes; mouse
Experimental: The experiment is carried out on batches of 20 Swiss male mice weighing from 20 to 30 g. Each product to be tested is administered to the mice by intraperitoneal route at a dose corresponding to 1/10th of the LD-50 or at a dose of 100 mg/kg when the LD-0 is higher than or equal to 800 mg/kg. The mice are placed in a nitrogen-oxygen (95:5) v/v atmosphere. The survival time of the mice is then measured up to 15 minutes maximum.
The results shown in Table VII are expressed in percentage of survival with respect to a non-treated control batch and a batch treated with an anti-hypoxic reference product [specialty known under the trade name of "Duxil" and which is constituted by a mixture of Almitrine bis-methanesulfonate and of Raubasine in the weight ratio 3:1], the anti-hypoxic reference product being administered at the dose of 18 mg/kg I.P.

Row | Compound | inhibition in vivo at 100 mg/kg [1] | Ulcer index [2] | LD50 ([3]; in vivo, ip, I.P.) | DL-0 (maximum non-lethal dose) ([3]; I.P.) | Diminution of veinous thrombus ([1]; rat) | Survival (survival percentage to hypoxic aggression) [4] | DL-0 (maximum non-lethal dose) ([3]; in vivo, ip)
1 | O=[N+]([O-])c1cccc(C(O)c2ccc(O[C@@H]3OC[C@@H](O)[C@H](O)[C@H]3O)cc2)c1 (some centres unmarked) [Example 87] | ≥ 50% | 0.35 | > 600 mg/kg | – | – | – | –
2 | Nc1ccccc1C(=O)c1ccc(O[C@@H]2OC[C@@H](O)[C@H](O)[C@H]2O)cc1 [Example 7] | ≥ 50% | – | – | > 800 mg/kg IP | – | – | –
3 | CC(=O)O[C@@H]1[C@@H](OC(C)=O)[C@H](Oc2ccc(C(=O)c3ccc(N)cc3)cc2)OC[C@H]1OC(C)=O [Example 77] | 30 to 49% | – | – | > 800 mg/kg IP | – | – | –
4 | O=[N+]([O-])c1ccc(C(O)c2ccc(O[C@@H]3OC[C@@H](O)[C@H](O)[C@H]3O)cc2)cc1 (single isomer, unassigned) [Example 98, [4-(4-nitro-α-hydroxybenzyl)-phenyl]-β-D-xylopyranoside] | ≥ 50% | – | – | – | – | – | –
5 | O=C(c1ccc(Br)cc1)c1ccc(O[C@@H]2OC[C@@H](O)[C@H](O)[C@H]2O)cc1 [Example 4] | 30 to 49% | 1.04 | – | > 800 mg/kg IP | – | – | –
6 | OC(c1ccc(O[C@@H]2OC[C@@H](O)[C@H](O)[C@H]2O)cc1)c1ccc(Cl)cc1Cl (some centres unmarked) [Example 86] | 30 to 49% | 0.50 | > 350 mg/kg | – | – | – | –
7 | O=C(c1ccc(O[C@@H]2OC[C@@H](O)[C@H](O)[C@H]2O)cc1)c1cccc([N+](=O)[O-])c1 [Example 2] | 30 to 49% | 0.84 | – | > 800 mg/kg IP | – | – | –
8 | O=[N+]([O-])c1ccc(C(O)c2ccc(O[C@@H]3OC[C@@H](O)[C@H](O)[C@H]3O)cc2)cc1 (single isomer, unassigned) [Example 99, [4-(4-nitro-α-hydroxybenzyl)-phenyl]-β-D-xylopyranoside] | – | – | – | – | + (inhibition of 30 to 49%) | – | –
9 | Cc1cc(C)c(C(=O)c2cccc(O[C@@H]3OC[C@@H](O)[C@H](O)[C@H]3O)c2)c(C)c1 [Example 71] | 30 to 49% | 0.98 | – | > 800 mg/kg IP | – | – | –
10 | Cc1cc(C(=O)c2ccc([N+](=O)[O-])cc2)ccc1O[C@@H]1OC[C@@H](O)[C@H](O)[C@H]1O [Example 29] | 30 to 49% | – | – | > 800 mg/kg IP | – | – | –
11 | COc1ccc(C(=O)c2ccc(O[C@@H]3OC[C@@H](OC(C)=O)[C@H](OC(C)=O)[C@H]3OC(C)=O)cc2)cc1 [Example 81] | 30 to 49% | 0.64 | – | > 800 mg/kg IP | – | – | –
12 | CC(=O)O[C@@H]1[C@@H](OC(C)=O)[C@H](Oc2ccc(C(=O)c3ccc(Br)cc3)cc2)OC[C@H]1OC(C)=O [Example 75] | 30 to 49% | 0.32 | – | > 800 mg/kg IP | – | – | –
13 | OC(c1ccccc1)c1ccc(O[C@@H]2OC[C@@H](O)[C@H](O)[C@H]2O)cc1 (some centres unmarked) [Example 92] | 30 to 49% | – | 1400 mg/kg | – | – | – | –
14 | O=C(c1ccc(O[C@@H]2OC[C@@H](O)[C@H](O)[C@H]2O)cc1)c1ccccc1Cl [Example 5] | ≥ 50% | – | – | > 800 mg/kg IP | – | – | –
15 | OC(c1ccccc1)c1cccc(O[C@@H]2OC[C@@H](O)[C@H](O)[C@H]2O)c1 (some centres unmarked) [Example 117] | – | 0.59 | 1000 mg/kg | – | – | ++ (from 50 to 79%) | –
16 | Cc1cc(C(=O)c2ccc([N+](=O)[O-])cc2)cc(C)c1O[C@@H]1OC[C@@H](O)[C@H](O)[C@H]1O [Example 23] | 30 to 49% | 0.52 | 750 mg/kg | – | – | – | –
17 | CC(=O)N[C@H]1[C@H](Oc2ccc(C(=O)c3ccccc3C)cc2)O[C@H](CO)[C@@H](O)[C@@H]1O [Example 121] | – | 0.39 | – | – | – | + (from 30 to 49%) | > 800 mg/kg IP

Row | Compound | inhibition in vivo at 100 mg/kg [1] | Ulcer index [2] | LD50 ([3]; in vivo, ip, I.P.) | DL-0 (maximum non-lethal dose) ([3]; I.P.) | Diminution of veinous thrombus ([1]; rat) | Survival (survival percentage to hypoxic aggression) [4] | DL-0 (maximum non-lethal dose) ([3]; in vivo, ip)
18 | CC(=O)OC[C@H]1O[C@@H](Oc2ccc(C(=O)c3ccc([N+](=O)[O-])cc3)cc2)[C@H](OC(C)=O)[C@@H](OC(C)=O)[C@@H]1OC(C)=O [Example 110] | – | 0.71 | – | – | – | ++ (from 50 to 79%) | > 800 mg/kg IP
19 | COc1ccc(C(=O)c2ccc(O[C@@H]3OC[C@@H](O)[C@H](O)[C@H]3O)cc2)cc1 [Example 17] | 30 to 49% | 0.69 | 1600 mg/kg | – | – | – | –
20 | CC(=O)O[C@@H]1[C@@H](OC(C)=O)[C@H](Oc2ccc(C(=O)c3ccccc3C)cc2)OC[C@H]1OC(C)=O [Example 69] | 30 to 49% | 0.78 | 900 mg/kg | – | – | – | –
21 | CC(=O)O[C@@H]1[C@@H](OC(C)=O)[C@H](Oc2ccc(C(=O)c3ccccc3Cl)cc2)OC[C@H]1OC(C)=O [Example 70] | 30 to 49% | 0.56 | – | > 800 mg/kg IP | – | – | –
22 | COc1cccc(C(=O)c2ccc(O[C@@H]3OC[C@@H](O)[C@H](O)[C@H]3O)cc2)c1 [Example 16] | – | 0.73 | – | – | – | + (from 30 to 49%) | > 800 mg/kg IP
23 | CC(=O)N[C@H]1[C@H](Oc2ccc(C(=O)c3ccc([N+](=O)[O-])cc3)cc2)O[C@H](CO)[C@@H](O)[C@@H]1O [Example 44, [4-(4-nitrobenzoyl)-phenyl]-2-(N-acetyl)-β-D-glucosaminide] | – | 0.385 | – | – | – | +++ (higher than or equal to 80%) | > 800 mg/kg IP
24 | CC(=O)N[C@H]1[C@H](Oc2ccc(C(=O)c3ccc(C)cc3)cc2)O[C@H](CO)[C@@H](O)[C@@H]1O [Example 111] | – | 0.42 | 750 mg/kg | – | – | ++ (from 50 to 79%) | –
25 | CC(=O)N[C@H]1[C@H](Oc2ccc(C(=O)c3ccc(Cl)cc3)cc2)O[C@H](CO)[C@@H](O)[C@@H]1O [Example 43] | – | 0.52 | – | – | – | +++ (higher than or equal to 80%) | > 800 mg/kg IP
26 | CC(=O)O[C@@H]1[C@@H](OC(C)=O)[C@H](Oc2ccc(C(=O)c3ccc(N(C)C)cc3)cc2)OC[C@H]1OC(C)=O [Example 116] | – | 0.44 | – | – | – | + (from 30 to 49%) | > 800 mg/kg IP
27 | O=C(c1ccccc1)c1cccc(O[C@@H]2OC[C@@H](O)[C@H](O)[C@H]2O)c1 [Example 45] | 30 to 49% | 1.11 | – | > 800 mg/kg IP | – | – | –
28 | CC(=O)O[C@@H]1[C@@H](OC(C)=O)[C@H](Oc2ccc(C(=O)c3ccccc3C)cc2C)OC[C@H]1OC(C)=O [Example 103] | – | 0.65 | – | – | – | ++ (from 50 to 79%) | > 800 mg/kg IP
29 | O=C(c1ccccc1)c1ccc(O[C@@H]2OC[C@@H](O)[C@H](O)[C@H]2O)cc1 [Example 18] | 30 to 49% | – | > 1000 mg/kg | – | – | – | –
30 | O=C(c1ccc(O[C@@H]2OC[C@@H](O)[C@H](O)[C@H]2O)cc1)c1ccccc1[N+](=O)[O-] [Example 6] | 30 to 49% | 0.45 | 600 mg/kg | – | – | – | –
31 | CC(=O)N[C@H]1[C@H](Oc2ccc(C(=O)c3ccc([N+](=O)[O-])cc3)cc2)O[C@H](COC(C)=O)[C@@H](OC(C)=O)[C@@H]1OC(C)=O [Example 109] | – | 0.65 | – | – | – | ++ (from 50 to 79%) | > 800 mg/kg IP
32 | CC(=O)N[C@H]1[C@H](Oc2ccc(C(=O)c3ccc(C)cc3)cc2)O[C@H](COC(C)=O)[C@@H](OC(C)=O)[C@@H]1OC(C)=O [Example 112] | – | 0.68 | – | – | – | ++ (from 50 to 79%) | > 800 mg/kg IP
33 | CC(=O)O[C@@H]1[C@@H](OC(C)=O)[C@H](Oc2ccc(C(=O)c3ccc([N+](=O)[O-])cc3)cc2)OC[C@H]1OC(C)=O [Example 41, [4-(4-nitrobenzoyl)-phenyl]-2,3,4-tri-(O-acetyl)-β-D-xylopyranoside] | – | 0.40 | – | – | – | +++ (higher than or equal to 80%) | > 800 mg/kg IP
